How the values were obtained:
[1] = biological target: T1, L-phenylalanine dehydrogenase produced by Sporosarcina ureae SCRC-R04 (Sporosarcina ureae, UniProt P97014); assay: Substrate and coenzyme specificity, oxidative deamination (Sporosarcina enzyme); format: biochemical; settings: coenzyme
T1 sequence (P97014 1-379): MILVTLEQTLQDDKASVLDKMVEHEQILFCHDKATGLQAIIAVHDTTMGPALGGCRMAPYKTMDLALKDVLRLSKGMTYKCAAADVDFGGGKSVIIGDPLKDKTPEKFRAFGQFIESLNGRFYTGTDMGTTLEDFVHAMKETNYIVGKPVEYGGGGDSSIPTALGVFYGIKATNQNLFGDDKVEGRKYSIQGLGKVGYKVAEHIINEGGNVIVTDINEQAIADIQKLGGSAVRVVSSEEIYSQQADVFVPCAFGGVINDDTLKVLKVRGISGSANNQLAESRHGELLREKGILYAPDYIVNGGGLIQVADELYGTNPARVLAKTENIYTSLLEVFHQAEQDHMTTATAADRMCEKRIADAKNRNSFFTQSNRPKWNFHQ
Method: The substrate concentration is 10 mM, except for the L-tyrosine concentration which is 1.4 mM.

[2] = biological target: T2, L-phenylalanine dehydrogenase produced by Bacillus sp. SCRC-R79a (Lysinibacillus sphaericus, UniProt P23307); assay: Substrate and coenzyme specificity, oxidative deamination (Bacillus enzyme); format: biochemical; set-up: inoculated with Bacillus sp; endogenous in cells; host or cells: Bacillus sp; enzyme purified in house; settings: coenzyme
T2 sequence (P23307 1-381): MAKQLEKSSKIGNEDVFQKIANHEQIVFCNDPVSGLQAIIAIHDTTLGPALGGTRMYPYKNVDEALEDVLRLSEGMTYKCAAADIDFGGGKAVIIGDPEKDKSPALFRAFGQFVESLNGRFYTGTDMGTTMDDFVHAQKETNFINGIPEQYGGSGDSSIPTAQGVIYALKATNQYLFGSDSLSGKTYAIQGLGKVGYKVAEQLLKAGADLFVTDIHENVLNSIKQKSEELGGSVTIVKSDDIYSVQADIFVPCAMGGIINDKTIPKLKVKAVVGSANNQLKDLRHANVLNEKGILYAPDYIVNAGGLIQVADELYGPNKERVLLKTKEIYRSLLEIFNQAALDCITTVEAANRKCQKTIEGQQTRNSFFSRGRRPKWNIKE
Method: The substrate concentration is 10 mM except for the L-tyrosine concentration which is 1.4 mM.

[3] = biological target: T2, L-phenylalanine dehydrogenase produced by Bacillus sp. SCRC-R79a; settings: pH 9.0; phenylpyruvate to L-phenylalanine as 100%

Compound | activity relative to NAD^+ as coenzyme [1] | activity relative to NAD^+ as coenzyme [2] | relative rate of converting the α-keto acid to the L-amino acid [3]
NC(=O)c1ccc[n+]([C@@H]2O[C@H](COP(=O)([O-])OP(=O)(O)OC[C@H]3O[C@@H](n4cnc5c(N)ncnc54)[C@H](OP(=O)(O)O)[C@@H]3O)[C@@H](O)[C@H]2O)c1 [NADP^+] | about 3.9% | ~2.9% | –
O=C(O)C(=O)Cc1ccccc1 [phenylpyruvate] | – | – | 100%

Reference: patent US4849345A, “L-phenylalanine dehydrogenase and use thereof” (priority 1985, dated 1989)
